Source: patent US9789181B2, “PAN-DR binding polypeptides and uses thereof” (Epimmune Inc., priority 2009, dated 2017)
Where no end group is shown, it is not given here.

Legend:
HLA DRB1 *0802 = HLA DRB1 *0802 (Homo sapiens, UniProt P01903+P01911, A100R/A103L/A169T/F76Y/H45Y/I96F/K41T/L162R/M171V/P40S/Q125H/Q178H/Q39Y/Q99D/R218S/R42G/S66Y/V115G/W38E); test: IC50nM to purified HLA | DRB1 *0802
Protocol: (§1) Table printed on a drawing sheet, FIG. 1 (contd.)
(§2) Head of the field: IC50nM to purified HLA | DRB1 *0802
(§3) First copying reader's note: Continued from the preceding sheet of FIG. 1; decimal commas are used, the analog names give the substituted residues and positions in PADRE, and some values are printed in italics or bold and some SEQ ID NOs bold and underlined without a legend on this sheet.
(§4) Where the first naming reader finds the target: head: IC50nM to purified HLA | DRB1 *0802

HLA DRB1 *0405 = HLA DRB1 *0405 (Homo sapiens, UniProt P01903+P01911, A100R/A169T/D86S/F76Y/I96L/K127E/L162R/M171V/N62H/P40V/Q125Y/R42H/S133A/S149N/S66Y/V115G/V209L/W38E); test: IC50nM to purified HLA | DRB1 *0405
Protocol: as §1
Head of the field: IC50nM to purified HLA | DRB1 *0405
as §3
Where the first naming reader finds the target: head: IC50nM to purified HLA | DRB1 *0405

HLA DRB1 *0404 = HLA DRB1 *0404 (Homo sapiens, UniProt P01903+P01911, A100R/A169T/F76Y/I96L/K127E/L162R/M171V/N62H/P40V/Q125Y/R42H/S133A/S149N/S66Y/V209L/W38E); test: IC50nM to purified HLA | DRB1 *0404
Protocol: as §1
(§5) Head of the field: IC50nM to purified HLA | DRB1 *0404
as §3
(§6) Where the first naming reader finds the target: head: IC50nM to purified HLA | DRB1 *0404

HLA DRB1 *0901 = HLA DRB1 *0901 (Homo sapiens, UniProt P01903+P01911, A100R/A103E/D57H/D86V/F55Y/F60I/F76Y/I96F/K127E/L162R/M171V/P40D/Q125H/Q99R/R33Q/R42F/S133A/S66N/T210M/V115G/W38K/Y107V/Y59G/Y89S); test: IC50nM to purified HLA | DRB1 *0901
Protocol: as §1
(§7) Head of the field: IC50nM to purified HLA | DRB1 *0901
as §3
(§8) Where the first naming reader finds the target: head: IC50nM to purified HLA | DRB1 *0901

HLA DRB5 *0101 = HLA DRB5 *0101 (Homo sapiens, UniProt P01903+Q30154); test: IC50nM to purified HLA | DRB5 *0101
Protocol: as §1
(§9) Head of the field: IC50nM to purified HLA | DRB5 *0101
as §3
(§10) Where the first naming reader finds the target: head: IC50nM to purified HLA | DRB5 *0101

HLA DRB1 *0301 = HLA DRB1 *0301 (Homo sapiens, UniProt P01903+P01911, A100K/A102G/A103R/A169T/F55Y/I96L/K41T/L162R/M171V/P40S/Q125H/Q178H/Q39Y/R42S/S66N/T106N/T262R/W38E/Y61H); test: IC50nM to purified HLA | DRB1 *0301
Sequence of HLA DRB1 *0301 (P01903 26-254 limits assumed, other chains not shown): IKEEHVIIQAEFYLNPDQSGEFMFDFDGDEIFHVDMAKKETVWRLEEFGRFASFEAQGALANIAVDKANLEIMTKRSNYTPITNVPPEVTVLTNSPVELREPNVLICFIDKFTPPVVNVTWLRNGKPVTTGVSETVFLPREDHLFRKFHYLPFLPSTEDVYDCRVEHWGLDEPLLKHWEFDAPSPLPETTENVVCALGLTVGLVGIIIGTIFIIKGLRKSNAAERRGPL
Protocol: as §1
(§11) Head of the field: IC50nM to purified HLA | DRB1 *0301
as §3
(§12) Where the first naming reader finds the target: head: IC50nM to purified HLA | DRB1 *0301

HLA DRB1 *1101 = HLA DRB1 *1101 (Homo sapiens, UniProt P01903+P01911, A100R/A169T/A87E/I96F/K41T/L162R/M171V/P40S/Q125H/Q178H/Q39Y/Q99D/R42S/S66Y/T262R/V115G/W38E); test: IC50nM to purified HLA | DRB1 *1101
Sequence of HLA DRB1 *1101 (P01903 26-254 limits assumed, other chains not shown): as above
Protocol: as §1
Head of the field: IC50nM to purified HLA | DRB1 *1101
as §3
Where the first naming reader finds the target: head: IC50nM to purified HLA | DRB1 *1101

HLA DRB1 *0401 = HLA DRB1 *0401 (Homo sapiens, UniProt P01903+P01911, A100K/A169T/F76Y/I96L/K127E/L162R/M171V/N62H/P40V/Q125Y/R42H/S133A/S149N/S66Y/V115G/V209L/W38E); test: IC50nM to purified HLA | DRB1 *0401
Protocol: as §1
(§13) Head of the field: IC50nM to purified HLA | DRB1 *0401
as §3
(§14) Where the first naming reader finds the target: head: IC50nM to purified HLA | DRB1 *0401

HLA DRB1 *1501 = HLA DRB1 *1501 (Homo sapiens, UniProt P01903+P01911); test: IC50nM to purified HLA | DRB1 *1501
Protocol: as §1
(§15) Head of the field: IC50nM to purified HLA | DRB1 *1501
as §3
(§16) Where the first naming reader finds the target: head: IC50nM to purified HLA | DRB1 *1501

HLA DRB1 *0701 = HLA DRB1 *0701 (Homo sapiens, UniProt P01903+P01911, A100R/A102G/A103Q/D57E/D86V/E43K/F76Y/K127E/L162R/M171V/P40G/Q125H/Q99D/R33Q/R42Y/R54Q/S133A/S66F/T210M/V115G/Y107V/Y59L/Y89S); test: IC50nM to purified HLA | DRB1 *0701
Protocol: as §1
(§17) Head of the field: IC50nM to purified HLA | DRB1 *0701
as §3
(§18) Where the first naming reader finds the target: head: IC50nM to purified HLA | DRB1 *0701

purified HLA DRB1 *0301 = purified HLA DRB1 *0301 (Homo sapiens, UniProt P01903+P01911, A100K/A102G/A103R/A169T/F55Y/I96L/K41T/L162R/M171V/P40S/Q125H/Q178H/Q39Y/R42S/S66N/T106N/T262R/W38E/Y61H); test: IC50nM to purified HLA | DRB1 *0301
Sequence of purified HLA DRB1 *0301 (P01903 26-254 limits assumed, other chains not shown): as above
Protocol: (§19) Table printed on a drawing sheet, FIG. 1
as §11
(§20) First copying reader's note: The comma is the decimal sign and the point a thousands separator (e.g. 21.831); some values are printed bold or italic and some SEQ ID NOs underlined, with no legend on the sheet.
as §12

purified HLA DRB1 *0401 = purified HLA DRB1 *0401 (Homo sapiens, UniProt P01903+P01911, A100K/A169T/F76Y/I96L/K127E/L162R/M171V/N62H/P40V/Q125Y/R42H/S133A/S149N/S66Y/V115G/V209L/W38E); test: IC50nM to purified HLA | DRB1 *0401
Protocol: as §19, §13, §20, §14

purified HLA DRB1 *0101 = purified HLA DRB1 *0101 (Homo sapiens, UniProt P01903+P01911, A100R/D57E/F55L/F60I/F76Y/I96L/L162R/M171V/P40L/Q125E/R42F/V115G/Y59C); test: IC50nM to purified HLA | DRB1 *0101
Protocol: as §19
Head of the field: IC50nM to purified HLA | DRB1 *0101
as §20
Where the first naming reader finds the target: head: IC50nM to purified HLA | DRB1 *0101

purified HLA DRB1 *0701 = purified HLA DRB1 *0701 (Homo sapiens, UniProt P01903+P01911, A100R/A102G/A103Q/D57E/D86V/E43K/F76Y/K127E/L162R/M171V/P40G/Q125H/Q99D/R33Q/R42Y/R54Q/S133A/S66F/T210M/V115G/Y107V/Y59L/Y89S); test: IC50nM to purified HLA | DRB1 *0701
Protocol: as §19, §17, §20, §18

purified HLA DRB1 *1302 = purified HLA DRB1 *1302 (Homo sapiens, UniProt P01903+P01911, A100E/A169T/K41T/L162R/M171V/P40S/Q125H/Q178H/Q39Y/Q99D/R42S/S66N/T262R/V115G/W38E/Y61H); test: IC50nM to purified HLA | DRB1 *1302
Sequence of purified HLA DRB1 *1302 (P01903 26-254 limits assumed, other chains not shown): as above
Protocol: as §19
Head of the field: IC50nM to purified HLA | DRB1 *1302
as §20
Where the first naming reader finds the target: head: IC50nM to purified HLA | DRB1 *1302

purified HLA DRB1 *0901 = purified HLA DRB1 *0901 (Homo sapiens, UniProt P01903+P01911, A100R/A103E/D57H/D86V/F55Y/F60I/F76Y/I96F/K127E/L162R/M171V/P40D/Q125H/Q99R/R33Q/R42F/S133A/S66N/T210M/V115G/W38K/Y107V/Y59G/Y89S); test: IC50nM to purified HLA | DRB1 *0901
Protocol: as §19, §7, §20, §8

purified HLA DRB1 *1501 = purified HLA DRB1 *1501 (Homo sapiens, UniProt P01903+P01911); test: IC50nM to purified HLA | DRB1 *1501
Protocol: as §19, §15, §20, §16

purified HLA DRB5 *0101 = purified HLA DRB5 *0101 (Homo sapiens, UniProt P01903+Q30154); test: IC50nM to purified HLA | DRB5 *0101
Protocol: as §19, §9, §20, §10

purified HLA DRB4 *0101 = purified HLA DRB4 *0101 (Homo sapiens, UniProt P01903+P13762, G164S); test: IC50nM to purified HLA | DRB4 *0101
Sequence of purified HLA DRB4 *0101 (P01903 26-254 limits assumed): as the sequence (P01903 26-254 limits assumed, other chains not shown) above
Sequence of purified HLA DRB4 *0101 (P13762 whole entry G164S): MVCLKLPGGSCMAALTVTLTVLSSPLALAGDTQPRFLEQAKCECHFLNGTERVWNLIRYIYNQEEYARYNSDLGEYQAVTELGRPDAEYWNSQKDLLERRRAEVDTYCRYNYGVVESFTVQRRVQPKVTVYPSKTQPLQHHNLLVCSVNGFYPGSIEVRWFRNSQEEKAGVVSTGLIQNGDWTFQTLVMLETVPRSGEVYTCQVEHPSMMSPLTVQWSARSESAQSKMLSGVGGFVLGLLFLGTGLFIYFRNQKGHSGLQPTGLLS
Protocol: as §19
Head of the field: IC50nM to purified HLA | DRB4 *0101
as §20
Where the first naming reader finds the target: head: IC50nM to purified HLA | DRB4 *0101

purified HLA DRB1 *0404 = purified HLA DRB1 *0404 (Homo sapiens, UniProt P01903+P01911, A100R/A169T/F76Y/I96L/K127E/L162R/M171V/N62H/P40V/Q125Y/R42H/S133A/S149N/S66Y/V209L/W38E); test: IC50nM to purified HLA | DRB1 *0404
Protocol: as §19, §5, §20, §6

purified HLA DRB1 *0802 = purified HLA DRB1 *0802 (Homo sapiens, UniProt P01903+P01911, A100R/A103L/A169T/F76Y/H45Y/I96F/K41T/L162R/M171V/P40S/Q125H/Q178H/Q39Y/Q99D/R218S/R42G/S66Y/V115G/W38E); test: IC50nM to purified HLA | DRB1 *0802
Protocol: as §19, §2, §20, §4

| Sequence | IC50 (purified HLA DRB1 *0301) [nM] | IC50 (purified HLA DRB1 *0401) [nM] | IC50 (purified HLA DRB1 *0101) [nM] | IC50 (purified HLA DRB1 *0701) [nM] | IC50 (purified HLA DRB1 *1302) [nM] | IC50 (purified HLA DRB1 *0901) [nM] | IC50 (purified HLA DRB1 *1501) [nM] | IC50 (purified HLA DRB5 *0101) [nM] | IC50 (purified HLA DRB4 *0101) [nM] | IC50 (purified HLA DRB1 *0404) [nM] | IC50 (purified HLA DRB1 *0802) [nM] | further results |
| --- | --- | --- | --- | --- | --- | --- | --- | --- | --- | --- | --- | --- |
| AAAHFVAANTLKADA [SEQ ID NO: 34] | – | – | – | – | – | – | – | – | – | – | – | IC50 (HLA DRB1 *0802): 67 nM; IC50 (HLA DRB1 *0405): 36 nM; IC50 (HLA DRB1 *0404): 13 nM; IC50 (HLA DRB1 *0901): 60 nM; IC50 (HLA DRB5 *0101): 18 nM; IC50 (HLA DRB1 *0301): 3120 nM; IC50 (HLA DRB1 *1101): 91 nM; IC50 (HLA DRB1 *0401): 21 nM; IC50 (HLA DRB1 *1501): 172 nM; IC50 (HLA DRB1 *0701): 88 nM |
| AAAHFVAAWTLKAAA [SEQ ID NO: 25] | 262 | 3.1 | 4.7 | 110 | 1530 | 45 | 20 | 11 | 384 | 4.8 | – | – |
| AAAKFVAAWTLHAAA [SEQ ID NO: 6] | – | 3.4 | 3.9 | 35 | 656 | 24 | – | 22 | 209 | 2.4 | 7.6 | – |
| AAAWFVAAWTLKAAA [SEQ ID NO: 5] | 161 | 3.1 | – | – | 2930 | 35 | 31 | 9.3 | 566 | 3.8 | 8.5 | – |
